Reference: article PMC12493201, “A biosynthetic pathway for ornithine lipid formation dependent on a GH3 (Gretchen Hagen 3)-like enzyme in planctomycetes” (The Journal of Biological Chemistry, 2025)

Target: T1, OlsH (Sinac_1599) (Singulisphaera acidiphila, UniProt L0DAW6)
T1 sequence (L0DAW6 1-526): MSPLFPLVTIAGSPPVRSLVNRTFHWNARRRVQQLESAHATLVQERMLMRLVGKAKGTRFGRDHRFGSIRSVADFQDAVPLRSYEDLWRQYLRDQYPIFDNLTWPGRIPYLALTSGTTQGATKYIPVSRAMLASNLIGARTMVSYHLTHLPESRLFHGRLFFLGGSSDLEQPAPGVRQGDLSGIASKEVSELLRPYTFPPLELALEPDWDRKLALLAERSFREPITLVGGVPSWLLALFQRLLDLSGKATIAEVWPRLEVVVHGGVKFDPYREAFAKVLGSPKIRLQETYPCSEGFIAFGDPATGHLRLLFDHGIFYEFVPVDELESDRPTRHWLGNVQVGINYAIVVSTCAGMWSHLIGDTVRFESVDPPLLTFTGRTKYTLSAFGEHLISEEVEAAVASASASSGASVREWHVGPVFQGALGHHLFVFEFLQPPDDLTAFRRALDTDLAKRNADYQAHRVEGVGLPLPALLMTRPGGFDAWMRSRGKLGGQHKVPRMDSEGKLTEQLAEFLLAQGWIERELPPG
Assay: […] N-acyl ornithine formation, TLC / PhosphorImager; empty-vector extract inactive
Assay type: biochemical
Conditions: ATP, Mg2+, Tris pH 7.9, 30 °C, cell-free E. coli extract

NCCC[C@H](N)C(=O)O [ornithine]
14C N-acyl ornithine formation, TLC / PhosphorImager; empty-vector extract inact (palmitic acid, labelled compound): Adding all compounds resulted in a solid acyl-ornithine signal

CCCCCCCCCCCCCCCC(=O)O [palmitic acid]
14C N-acyl ornithine formation, TLC / PhosphorImager; empty-vector extract inact ([14C]-ornithine, fatty acid as Triton X-100 micelles): Strong acyl ornithine signals were detected with the three non-hydroxylated fatty acids
